# Experimental data published in US10080757B2 (WISCONSIN ALUMNI RESEARCH FOUNDATION, priority 2016, dated 2018).
# Target: T1, recombinant MtbUGM (Mycobacterium tuberculosis, UniProt P9WIQ1)
# T1 construct: made in house
# Assay: biochemical
# Settings: carboxylic acid replacements (R3)
# T1 sequence (P9WIQ1 whole entry): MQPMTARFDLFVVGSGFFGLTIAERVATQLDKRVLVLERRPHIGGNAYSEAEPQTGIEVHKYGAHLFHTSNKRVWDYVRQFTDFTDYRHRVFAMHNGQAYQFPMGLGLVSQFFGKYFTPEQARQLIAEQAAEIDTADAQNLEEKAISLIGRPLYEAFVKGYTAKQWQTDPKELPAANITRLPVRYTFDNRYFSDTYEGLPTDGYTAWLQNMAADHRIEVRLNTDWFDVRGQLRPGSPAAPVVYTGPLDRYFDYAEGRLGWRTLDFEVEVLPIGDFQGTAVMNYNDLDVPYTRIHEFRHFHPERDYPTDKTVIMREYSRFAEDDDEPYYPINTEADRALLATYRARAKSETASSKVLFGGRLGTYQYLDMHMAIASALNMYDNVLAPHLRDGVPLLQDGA
row,SMILES,MtbUGM inhibition (in words)
1,"COC(=O)CC1Sc2nnc(Cc3ccc(Br)cc3)n2N=C1c1ccc(Cl)cc1 (stereo not shown) [Compound 14, Methyl-2-(3-(4-bromobenzyl)-6-(4-chlorophenyl)-7H-[1,2,4]triazolo[3,4-b][1,3,4]thiadiazin-7-yl)acetate]",neither the ester nor amide variants effectively inhibit MtbUGM
2,"COC(=O)CC1Sc2nnc(-c3cccs3)n2N=C1c1ccc(Cl)cc1 (stereo not shown) [Compound 32, Methyl-2-(6-(4-chlorophenyl)-3-(thiophen-2-yl)-7H-[1,2,4]triazolo[3,4-b][1,3,4]thiadiazin-7-yl)acetate]",neither the ester nor amide variants effectively inhibit MtbUGM
3,"C=CCNC(=O)CC1Sc2nnc(-c3cccs3)n2N=C1c1ccc(Cl)cc1 (stereo not shown) [Compound 34, N-allyl-2-(6-(4-chlorophenyl)-3-(thiophen-2-yl)-7H-[1,2,4]triazolo[3,4-b][1,3,4]thiadiazin-7-yl)acetamide]",neither the ester nor amide variants effectively inhibit MtbUGM
4,"C=CCNC(=O)CC1Sc2nnc(Cc3ccc(Br)cc3)n2N=C1c1ccc(Cl)cc1 (stereo not shown) [Compound 35, N-allyl-2-(3-(4-bromobenzyl)-6-(4-chlorophenyl)-7H-[1,2,4]triazolo[3,4-b][1,3,4]thiadiazin-7-yl)acetamide]",neither the ester nor amide variants effectively inhibit MtbUGM
